Calls of active or inactive are those of the source. The rule behind the calls is not given here.
Experiments:
[1] = test system: Calvarial osteoblast; assay: Osteogenic activity in rat primary calvarial osteoblasts at 100 pM after 48 hrs by ALP-based colorimetric assay; type: functional, cell-based
[2] = test system: Calvarial osteoblast; assay: Induction of cell proliferation in rat primary calvarial osteoblasts at 0.1 to 10 nM after 48 hrs by BrDU-staining based assay relative to control; type: functional
[3] = test system: Calvarial osteoblast; assay: Induction of mineralization in rat primary calvarial osteoblasts assessed as mineralized nodule formation at 0.001 to 10 nM after 12 days by alizarin red S-staining based assay relative to control; type: functional, cell-based
[4] = Upregulation of ALP mRNA expression in rat primary calvarial osteoblasts at 100 pM by RT-PCR analysis relative to control; type: functional, cell-based; conditions: Calvarial osteoblast
[5] = Upregulation of RunX-2 mRNA expression in rat primary calvarial osteoblasts at 10 nM by RT-PCR analysis relative to control; type: functional, cell-based; conditions: Calvarial osteoblast
[6] = Upregulation of ALP mRNA expression in rat primary calvarial osteoblasts at 10 nM […] by RT-PCR analysis relative to control; type: functional, cell-based; conditions: Calvarial osteoblast
[7] = Upregulation of OCN mRNA expression in rat primary calvarial osteoblasts at 10 nM by RT-PCR analysis relative to control; type: functional, cell-based; conditions: Calvarial osteoblast
[8] = Upregulation of RunX-2 mRNA expression in rat primary calvarial osteoblasts at 100 pM by RT-PCR analysis relative to control; type: functional, cell-based; conditions: Calvarial osteoblast
[9] = Upregulation of OCN mRNA expression in rat primary calvarial osteoblasts at 100 pM by RT-PCR analysis relative to control; type: functional, cell-based; conditions: Calvarial osteoblast
[10] = test system: Rattus norvegicus; assay: Osteogenic activity in rat assessed as upregulation of ALP mRNA expression in calvarial osteoblasts at 5 mg/kg/day, sc dosed for 3 days by RT-PCR analysis relative to control; type: functional
[11] = test system: Rattus norvegicus; assay: Osteogenic activity in rat assessed as upregulation of RunX-2 mRNA expression in calvarial osteoblasts at 0.5 mg/kg/day, sc dosed for 3 days by RT-PCR analysis relative to control; type: functional
[12] = test system: Rattus norvegicus; assay: Osteogenic activity in rat assessed as upregulation of RunX-2 mRNA expression in calvarial osteoblasts at 1 mg/kg/day, sc dosed for 3 days by RT-PCR analysis relative to control; type: functional
[13] = test system: Rattus norvegicus; assay: Osteogenic activity in rat assessed as upregulation of RunX-2 mRNA expression in calvarial osteoblasts at 5 mg/kg/day, sc dosed for 3 days by RT-PCR analysis relative to control; type: functional
[14] = test system: Rattus norvegicus; assay: Osteogenic activity in rat assessed as upregulation of RunX-2 mRNA expression in calvarial osteoblasts at 10 mg/kg/day, sc dosed for 3 days by RT-PCR analysis relative to control; type: functional
[15] = test system: Rattus norvegicus; assay: Osteogenic activity in rat assessed as upregulation of COL-1 mRNA expression in calvarial osteoblasts at 1 mg/kg/day, sc dosed for 3 days by RT-PCR analysis relative to control; type: functional
[16] = test system: Rattus norvegicus; assay: Osteogenic activity in rat assessed as upregulation of COL-1 mRNA expression in calvarial osteoblasts at 5 mg/kg/day, sc dosed for 3 days by RT-PCR analysis relative to control; type: functional
[17] = test system: Rattus norvegicus; assay: Induction of bone formation in rat assessed as increase in mineral appositional rate in calvarial osteoblasts at 1 mg/kg/day, sc dosed for 3 days by dynamic histomorphometric analysis relative to control; type: functional
[18] = test system: Rattus norvegicus; assay: Induction of bone formation in rat assessed as increase in mineral appositional rate in calvarial osteoblasts at 5 mg/kg/day, sc dosed for 3 days by dynamic histomorphometric analysis relative to control; type: functional
[19] = test system: Rattus norvegicus; assay: Induction of bone formation in rat assessed as increase in bone-formation rate in calvarial osteoblasts at 1 mg/kg/day, sc dosed for 3 days by dynamic histomorphometric analysis relative to control; type: functional
[20] = test system: Rattus norvegicus; assay: Induction of bone formation in rat assessed as increase in bone-formation rate in calvarial osteoblasts at 5 mg/kg/day, sc dosed for 3 days by dynamic histomorphometric analysis relative to control; type: functional
[21] = test system: Rattus norvegicus; assay: Induction of bone formation in rat assessed as increase in bone-formation rate in calvarial osteoblasts at 10 mg/kg/day, sc dosed for 3 days by dynamic histomorphometric analysis relative to control; type: functional
[22] = test system: Calvarial osteoblast; assay: Osteogenic activity in rat primary calvarial osteoblasts at 10 nM after 48 hrs by ALP-based colorimetric assay; type: functional, cell-based
[23] = test system: Calvarial osteoblast; assay: Induction of mineralization in rat primary calvarial osteoblasts assessed as mineralized nodule formation at 10 to 1000 nM after 12 days by alizarin red S-staining based assay relative to control; type: functional, cell-based
[24] = test system: Calvarial osteoblast; assay: Osteogenic activity in rat primary calvarial osteoblasts at 1 pM after 48 hrs by ALP-based colorimetric assay; type: functional, cell-based
[25] = test system: Calvarial osteoblast; assay: Induction of cell proliferation in rat primary calvarial osteoblasts at 10 nM nM after 48 hrs by BrDU-staining based assay relative to control; type: functional

With `C/C=C(\C)C(=O)O[C@@H]1C[C@H](O)[C@]23CO[C@H](C(=O)OC)[C@H]2[C@](C)([C@]24O[C@@]2(C)[C@H]2C[C@@H]4O[C@@H]4OC=C[C@@]42O)[C@H](O)[C@@H]2OC[C@@]1(C(=O)OC)[C@H]23` the Activity [1] was “Active”, the Activity [2] was “Active” and the Activity [3] was “Active”. For the same compound, the fold change (FC) [4] was 2.8, the fold change (FC) [5] was 2.5 and the fold change (FC) [6] was 2.8. The fold change (FC) [7] was 2.5.

For `C/C=C(\C)C(=O)O[C@H]1C[C@@H](OC(C)=O)[C@@]2(C(=O)OC)CO[C@H]3[C@@H](O)[C@@](C)([C@@]45O[C@@]4(C)[C@H]4C[C@@H]5O[C@@H]5OC=C[C@@]54O)[C@H]4[C@]1(CO[C@]4(O)C(=O)OC)[C@@H]32`, the Activity [1] was “Active”, the Activity [2] was “Active” and the Activity [3] was “Active”. The fold change (FC) [8] was 3.5, the fold change (FC) [9] was 3 and the fold change (FC) [4] was 4.5. The “fold change (FC)” value [10] was 2, the “fold change (FC)” value [11] was 5 and the “fold change (FC)” value [12] was 7. The “fold change (FC)” value [13] was 7.5, the “fold change (FC)” value [14] was 3 and the “fold change (FC)” value [15] was 7. The “fold change (FC)” value [16] was 3.5, the “fold change (FC)” value [17] was 3.4 and the “fold change (FC)” value [18] was 4. For the same compound, the “fold change (FC)” value [19] was 4, the “fold change (FC)” value [20] was 5 and the “fold change (FC)” value [21] was 3.2.

In the case of `CC(=O)O[C@@H]1C[C@H]2C(C)(C)C(=O)C=C[C@]2(C)[C@H]2CC[C@@]3(C)[C@H](c4ccoc4)C(=O)[C@H]4O[C@]43[C@@]21C`, the Activity [22] is reported as “Active”.

In the case of `CC(=O)O[C@@H]1C[C@H]2C(C)(C)C(=O)C=C[C@]2(C)[C@H]2CC[C@]3(C)C(=CC[C@H]3c3ccoc3)[C@@]21C`, the Activity [1] is reported as “Active”, the Activity [2] is reported as “Active” and the Activity [23] is reported as “Active”. For the same compound, the fold change (FC) [8] was 2.7, the fold change (FC) [9] was 2.3 and the Activity [4] was “inactive”.

With `C/C=C(\C)C(=O)O[C@H]1C[C@@H](OC(C)=O)[C@@]2(C)CO[C@H]3[C@H]4O[C@@H]5C[C@@H](c6ccoc6)C(C)=C5[C@@]4(C)[C@H](CC(=O)OC)[C@]1(C)[C@@H]32` the Activity [24] was “Active”.

In the case of `C[C@]12CC[C@@H]3c4ccc(O)cc4CC[C@H]3[C@@H]1CC[C@@H]2O`, the Activity [25] is reported as “Active”.

— ChEMBL document CHEMBL3822441, “Azadirachta indica triterpenoids promote osteoblast differentiation and mineralization in vitro and in vivo” (2016)
